Data published in ChEMBL document CHEMBL6083202, “The isolation of sclerotinin A as an anti-malarial compound by utilization of a global secondary metabolism regulator, laeA gene” (Bioorg Med Chem Lett, 2024).
In brackets after ≈: the same amount, converted by molar mass. Activity calls are given as the source filed them. The rule behind the calls is not given here.

Legend:
[1] = Selectivity index, ratio of IC50 for human HeLa cells to IC50 for chloroquine-resistant Plasmodium falciparum K1; format: toxicity, cell-based; conditions: read-out: Ratio IC50
[2] = Selectivity index, ratio of IC50 for human MRC5 cells to IC50 for chloroquine-resistant Plasmodium falciparum K1; format: toxicity, cell-based; conditions: read-out: Ratio IC50
Plasmodium falciparum [3] = test: Antimalarial activity against chloroquine-resistant Plasmodium falciparum K1; format: functional, organism-based
Plasmodium falciparum [4] = test: Antimalarial activity against chloroquine-sensitive Plasmodium falciparum FCR3; format: functional, organism-based
Saccharomyces cerevisiae = test: Antifungal activity against multidrug sensitive Saccharomyces cerevisiae 12gene mutant 0HSR-iERG6 at 10 ug; format: functional, organism-based; conditions: dose 10.0 µg
[5] = Cytotoxicity against human MRC5 cells; format: toxicity, cell-based
[6] = Cytotoxicity against human HeLa cells; format: toxicity, cell-based
[7] = Cytotoxicity against human HepG2 cells; format: toxicity, cell-based
[8] = Cytotoxicity against human A549 cells; format: toxicity, cell-based
[9] = Selectivity index, ratio of IC50 for human HepG2 cells to IC50 for chloroquine-resistant Plasmodium falciparum K1; format: toxicity, cell-based; conditions: read-out: Ratio IC50
[10] = Selectivity index, ratio of IC50 for human A549 cells to IC50 for chloroquine-resistant Plasmodium falciparum K1; format: toxicity, cell-based; conditions: read-out: Ratio IC50
[11] = Selectivity index, ratio of IC50 for human MRC5 cells to IC50 for chloroquine-sensitive Plasmodium falciparum FCR3; format: toxicity, cell-based; conditions: read-out: Ratio IC50
[12] = Selectivity index, ratio of IC50 for human HeLa cells to IC50 for chloroquine-sensitive Plasmodium falciparum FCR3; format: toxicity, cell-based; conditions: read-out: Ratio IC50
[13] = Selectivity index, ratio of IC50 for human HepG2 cells to IC50 for chloroquine-sensitive Plasmodium falciparum FCR3; format: toxicity, cell-based; conditions: read-out: Ratio IC50
[14] = Selectivity index, ratio of IC50 for human A549 cells to IC50 for chloroquine-sensitive Plasmodium falciparum FCR3; format: toxicity, cell-based; conditions: read-out: Ratio IC50

Q: Which selectivity ratio [1] does the source give for `Cc1c(O)c(C)c2c(c1O)C(=O)OC(C)(O)[C@H]2C` (stereo not given in full) here?
A: 11.4

Q: What about the selectivity ratio [2] of the same compound?
A: 1.4

Q: What about the IC50 (Plasmodium falciparum [3]) of the same compound?
A: 0.87 µg/mL (≈ 3.45 µM)

Q: And the IC50 (Plasmodium falciparum [4])?
A: 0.62 µg/mL (≈ 2.46 µM)

Q: What about the Activity (Saccharomyces cerevisiae) of the same compound?
A: inactive

Q: What about the IC50 [5] of the same compound?
A: 1.2 µg/mL (≈ 4.76 µM)

Q: And the IC50 [6]?
A: 9.88 µg/mL (≈ 39.2 µM)

Q: And the IC50 [7]?
A: 3.91 µg/mL (≈ 15.5 µM)

Q: And the IC50 [8]?
A: 15.9 µg/mL (≈ 63 µM)

Q: What about the selectivity ratio [9] of the same compound?
A: 4.49

Q: What about the selectivity ratio [10] of the same compound?
A: 18.3

Q: And the selectivity ratio [11]?
A: 2

Q: And the selectivity ratio [12]?
A: 15.9

Q: And the selectivity ratio [13]?
A: 6.31

Q: And the selectivity ratio [14]?
A: 25.6
